In patent US8946302B2, “Selective sigma-1 receptor ligands” (Wisconsin Alumni Research Foundation, priority 2008, dated 2015):
pEC50, pIC50, pKd, pKi: −log10 of the molar value. Where “and” joins values, the source holds several entries; their conditions need not be identical. Equal values may be shown once. Read-outs that look alike come from different tables or passages of the source. Marks after values point to notes of the source that are not given here.

Key:
sigma-1 receptor [1] = biological target: T1, sigma-1 receptor (Cavia porcellus, UniProt Q60492); experiment: Competition assay against (+)-[3H]-pentazocine, trace amines; assay type: binding; design: from tissue; settings: for sigma-2/sigma-1 Kd ratio: sigma-2 KD / sigma-1 KD
Protocol: (§1) Competitive binding assays were performed as previously described (18) with the exception of testing new ligands shown in Table 4.

sigma-1 receptor [2] = biological target: T2, sigma-1 receptor (Rattus norvegicus, UniProt Q9R0C9); experiment: Protection of [125I]-IACoc photolabeling in rat liver membranes; assay type: binding; settings: even at 50 and 100 μM
T2 construct: from tissue; host or cells: rat liver membranes
Protocol: (§3) Rat liver membranes (100 μg/lane) were suspended in the presence or absence of the protecting drugs. […] Percent band intensities are shown compared to controls performed in the absence of protecting ligand (−).

[3] = biological target: T3, purified sigma-1 receptor (Cavia porcellus, UniProt Q60492); experiment: Competitive displacement of [3H]-(+)-pentazocine at the pure sigma-1 receptor; assay type: binding, guinea pig; settings: read-out: Ki Pure σ-1R
T3 construct: made in house; host or cells: E. coli BL21 DE3
Protocol: A guinea pig sigma-1 receptor was purified as previously described (Ramachandran et al., Protein Expr. Purif., 2007. 51(2): 283-92). The pMal P2X plasmid (New England Biolabs) encoding the guinea pig sigma-1 receptor on the C-terminus of the E. coli Maltose Binding Protein was used for purification. The sigma-1 receptor on its C-terminus carried a hexa-histadine epitope tag. Protein was expressed in the E. coli strain BL21 DE3 (Novagen) with 0.6 mM IPTG. The E. coli pellet was sonicated and centrifuged at 100,000 g for 1 hour to separate the particulate and soluble fractions. The particulate fraction was extracted with Triton X-100, centrifuged and the extract was loaded onto an amylose resin (New England Biolabs, E-802). After washing the resin with buffer containing 0.5% Triton X-100, the MBP-sigma-1 receptor fusion protein was eluted with buffer containing 10 mM maltose.
The MBP-sigma-1-receptor fusion protein was cleaved with Factor Xa protease (Novagen) at room temperature for 24-48 hours and the cleavage was monitored with SDS-polyacrylamide gel electrophoresis. The sigma-1 receptor from the Factor Xa cleavage was purified with a HIS-Select HC Nickel affinity gel (Sigma-Aldrich P6611) in a batch format. The resin was washed with buffer containing 0.5% Triton X-100 detergent and the beads were separated by a brief centrifugation at 4000 rpm in a microcentrifuge. After washing to remove MBP, the pure sigma-1 receptor was eluted in buffer containing 250 mM imidazole.
To remove the undigested MBP-sigma-1 receptor fusion protein that is carried over in the Ni^2+ purification, the eluate from the Ni^2+ purification was incubated with Anti-MBP antibody conjugated to agarose (Vector Laboratories, Burlingame, Calif.) at 4° C. for 18-24 hours. The beads were separated by centrifugation and the supernatant contained the pure sigma-1 receptor.
Competition ligand binding to the pure sigma-1 receptor was performed as previously described. […] After incubation at 30° C. for 60 minutes, the reaction was terminated by rapid filtration through glass fiber filters (Whatman GF/B), using a Brandel cell harvester (Brandel, Gaithersburg, Md.). The glass fiber filters were pre-soaked in 0.5% polyethyleneimine (PEI) for at least 1 hour at room temperature (˜23° C.). Filters were washed 4 times with 4 mL of ice-cold 50 mM Tris-C1, pH 8.0. Radioactivity was quantified by liquid scintillation counting using a Packard model 1600 CA scintillation counter.

σ-1 Sites = biological target: T4, σ-1 Sites (Cavia porcellus, UniProt Q60492); experiment: σ-1 sites radioligand binding, guinea pig liver membranes (Table 2); settings: guinea pig liver membranes
T4 construct: from tissue
Protocol: (§4) Assays for sigma-1 were performed using 10 nM (+)-[^3H]pentazocine in guinea pig liver homogenates (25 μg/well) incubated at 30° C. for 1 hour with several concentrations of competing ligands. After incubation, membranes were harvested on a 0.5% PEI-treated Whatman GF/B filters using a Brandel Cell Harvester. (+)-[^3H]pentazocine binding was determined by liquid scintillation counting. […] Serial concentrations of the compounds evaluated were added to the reactions for 45 minutes at 30° C. and the samples vacuum filtered through 0.5% polyethyleneimine (PEI) treated Whatman GF/B as described above to measure displacement of the radioligands from the sigma receptor subtypes.

σ-2 Sites = biological target: T5, σ-2 Sites (Rattus norvegicus, UniProt Q5U3Y7); experiment: σ-2 sites radioligand binding, rat liver membranes (Table 2)
T5 construct: from tissue
T5 sequence (Q5U3Y7 1-176): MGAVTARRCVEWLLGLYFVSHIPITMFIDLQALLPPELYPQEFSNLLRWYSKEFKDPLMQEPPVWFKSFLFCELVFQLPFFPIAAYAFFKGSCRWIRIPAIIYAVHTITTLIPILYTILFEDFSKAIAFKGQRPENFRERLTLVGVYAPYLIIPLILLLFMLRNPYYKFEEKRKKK
Protocol: as §4

Kv 1.4 K+ channel = biological target: T6, Kv 1.4 K+ channel (Rattus norvegicus, UniProt P15385); experiment: Whole cell patch clamp of Kv 1.4 K+ channel co-expressed with sigma-1 receptor in HEK-293 cells; assay type: cell-based
T6 construct: expressed in transfected cells; host or cells: HEK-293, transient, pIRES KvS1R plus pEGFP
Protocol: After transfection (36-48 hours), whole cell K^+ currents were recorded from GFP positive HEK cells under voltage clamp using standard patch clamp techniques, using patch pipettes filled with (in mM) 120 KCl, 10 NaCl, 10 EGTA, 2 MgCl2, 2-4 MgATP, 0.3 NaGTP, 10 HEPES, pH 7.3.
The external solution was composed of (in mM) 130 NaCl, 4 KCl, 2 CaCl2, 1 MgCl2, 10 HEPES, pH 7.4 at room temperature (22-24° C.). Patch pipettes with resistances from 1-3 MΩ were fabricated from borosilicate glass (Garner Glass Co., CA). K^+ channels were activated by voltage step from −120 mV to 20 mV for 250 ms. Axopatch 200B, patch clamp amplifier interfaced to a PC running PCLAMP 7 (Axon Instruments) was used for data acquisition. Drugs were applied by a gravity feed system at a flow rate of 1-3 mL/minute. Series resistance compensation was used for cells with series resistance values higher than 10 MΩ. A 80-90% series resistance compensation was achieved on such cells.
K^+ currents were recorded using whole cell patch clamp technique.

Du145 = experiment: Cytotoxicity assay Du145; assay type: cell-based; settings: Homo sapiens, DU-145, HU Prostate, read-out: IC50 (SE) growth inhibition
Protocol: (§2) Multi-plex cytotoxicity assays were performed by the Keck-UWCCC Small Molecule Screening Facility (Madison, Wis.). Specific methodology can be found online at http://hts.wisc.edu/Resources.htm#mpa.

sigma-1 receptor [4] = biological target: T1, sigma-1 receptor; design: from tissue; host or cells: guinea pig liver membranes; settings: from Fontanilla et al. Biochemistry 2008; cited from earlier work
SF268 = experiment: Cytotoxicity assay SF268; assay type: cell-based; settings: Homo sapiens, SF-268, HU CNS, read-out: IC50 (SE) growth inhibition
Protocol: as §2

NCI-H460 = experiment: Cytotoxicity assay NCI-H460; assay type: cell-based; settings: Homo sapiens, HU lung, read-out: IC50 (SE) growth inhibition
Protocol: as §2

MCP10A = experiment: Cytotoxicity assay MCP10A; assay type: cell-based; settings: Homo sapiens, HU Breast, read-out: IC50 (SE) growth inhibition
Protocol: as §2

HCT-45 = experiment: Cytotoxicity assay HCT-45; assay type: cell-based; settings: Homo sapiens, HU Colorectal, read-out: IC50 (SE) growth inhibition
Protocol: as §2

A549 = experiment: Cytotoxicity assay A549; assay type: cell-based; settings: Homo sapiens, HU lung, read-out: IC50 (SE) growth inhibition
Protocol: as §2

tumor cell lines = experiment: Cytotoxicity assays, various tumor cell lines (statements in words); assay type: cell-based, human
Protocol: Because sigma-1 receptors are overexpressed in numerous tumor cell lines, which include breast cancer, lung carcinoma, renal carcinoma, colon carcinoma, sarcoma, brain tumors, melanoma, glioblastoma, neuroblastoma, and prostate cancer, the ability of the compounds to inhibit the growth of various tumor cell lines were tested.
as §2

HT-29 = experiment: Cytotoxicity assay HT-29; assay type: cell-based; settings: Homo sapiens, HU Colorectal, read-out: IC50 (SE) growth inhibition
Protocol: as §2

SKOV-3 = experiment: Cytotoxicity assay SKOV-3; assay type: cell-based; settings: Homo sapiens, SK-OV-3, HU Ovarian, read-out: IC50 (SE) growth inhibition
Protocol: as §2

MB-MDA-231 = experiment: Cytotoxicity assay MB-MDA-231; assay type: cell-based; settings: Homo sapiens, HU Breast, read-out: IC50 (SE) growth inhibition
Protocol: as §2

MCF7 = experiment: Cytotoxicity assay MCF7; assay type: cell-based; settings: Homo sapiens, HU Breast, read-out: IC50 (SE) growth inhibition
Protocol: as §2

HI299 = experiment: Cytotoxicity assay HI299; assay type: cell-based; settings: Homo sapiens, HU Lung, read-out: IC50 (SE) growth inhibition
Protocol: as §2

sigma-2 receptor [5] = biological target: T7, sigma-2 receptor (Rattus norvegicus, UniProt Q5U3Y7); design: from tissue; host or cells: rat liver membranes; settings: from Fontanilla et al. Biochemistry 2008; cited from earlier work
T7 sequence (Q5U3Y7 1-176): T5 sequence (Q5U3Y7 1-176)

sigma-1 receptor [6] = biological target: sigma-1 receptor (Homo sapiens, UniProt Q99720); settings: literature value; cited from earlier work
sigma-2 receptor [7] = biological target: sigma-2 receptor (Homo sapiens, UniProt Q5BJF2); settings: literature value; cited from earlier work
sigma-2 receptor [8] = biological target: T7, sigma-2 receptor; experiment: Sigma-2 receptor competitive binding, trace amines; design: from tissue; host or cells: liver membranes (rat inferred); settings: read-out: Sigma-2R KD
Protocol: as §1

sigma-2 receptor [9] = biological target: T7, sigma-2 receptor; experiment: Protection of [125I]IAF photolabeling of the sigma-2 receptor in rat liver membranes; assay type: binding; design: from tissue; host or cells: rat liver membranes
Protocol: as §3

T1 sequence (Q60492 whole entry): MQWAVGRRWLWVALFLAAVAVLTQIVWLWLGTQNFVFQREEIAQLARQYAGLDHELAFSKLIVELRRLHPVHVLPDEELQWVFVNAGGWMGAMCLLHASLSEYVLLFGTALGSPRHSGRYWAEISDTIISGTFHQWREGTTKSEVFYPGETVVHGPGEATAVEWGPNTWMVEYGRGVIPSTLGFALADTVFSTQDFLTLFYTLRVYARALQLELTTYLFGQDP
T3 sequence (Q60492 whole entry): as above
T2 sequence (Q9R0C9 whole entry): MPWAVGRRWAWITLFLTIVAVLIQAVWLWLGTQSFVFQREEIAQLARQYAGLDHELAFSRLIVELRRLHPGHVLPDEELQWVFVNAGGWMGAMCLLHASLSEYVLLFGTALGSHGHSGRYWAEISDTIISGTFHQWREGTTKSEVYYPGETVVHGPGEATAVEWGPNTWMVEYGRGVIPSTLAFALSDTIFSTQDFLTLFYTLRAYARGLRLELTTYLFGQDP
T6 sequence (Q9R0C9 whole entry partner): as the sequence (Q9R0C9 whole entry) above
T6 sequence (P15385 whole entry): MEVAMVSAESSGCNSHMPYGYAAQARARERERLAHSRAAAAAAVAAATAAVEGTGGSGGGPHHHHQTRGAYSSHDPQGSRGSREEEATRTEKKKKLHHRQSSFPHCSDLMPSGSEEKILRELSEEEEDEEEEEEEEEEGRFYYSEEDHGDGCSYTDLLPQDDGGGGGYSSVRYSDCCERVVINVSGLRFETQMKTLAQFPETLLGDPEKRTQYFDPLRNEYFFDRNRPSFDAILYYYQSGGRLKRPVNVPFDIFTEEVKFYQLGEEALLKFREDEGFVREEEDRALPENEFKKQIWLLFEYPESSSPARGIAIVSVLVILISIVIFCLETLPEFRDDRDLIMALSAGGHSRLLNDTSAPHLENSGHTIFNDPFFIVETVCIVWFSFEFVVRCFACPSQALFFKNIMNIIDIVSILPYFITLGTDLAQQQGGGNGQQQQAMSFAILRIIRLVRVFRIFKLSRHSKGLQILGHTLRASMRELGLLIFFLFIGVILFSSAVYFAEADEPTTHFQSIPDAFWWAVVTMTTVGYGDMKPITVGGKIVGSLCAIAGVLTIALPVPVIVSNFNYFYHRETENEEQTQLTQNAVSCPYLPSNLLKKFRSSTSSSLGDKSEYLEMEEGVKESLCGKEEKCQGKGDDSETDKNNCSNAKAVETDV
T4 sequence (Q60492 whole entry): as the sequence (Q60492 whole entry) above
Chain of sigma-2 receptor (Homo sapiens, UniProt Q5BJF2) (Q5BJF2 whole entry, species assumed): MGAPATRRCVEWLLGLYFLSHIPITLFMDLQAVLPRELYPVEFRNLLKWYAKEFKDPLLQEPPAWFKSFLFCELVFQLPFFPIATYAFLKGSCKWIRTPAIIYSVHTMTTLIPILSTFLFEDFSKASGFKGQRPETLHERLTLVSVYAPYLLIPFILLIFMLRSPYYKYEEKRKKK
Chain of sigma-1 receptor (Homo sapiens, UniProt Q99720) (Q99720 whole entry, species assumed): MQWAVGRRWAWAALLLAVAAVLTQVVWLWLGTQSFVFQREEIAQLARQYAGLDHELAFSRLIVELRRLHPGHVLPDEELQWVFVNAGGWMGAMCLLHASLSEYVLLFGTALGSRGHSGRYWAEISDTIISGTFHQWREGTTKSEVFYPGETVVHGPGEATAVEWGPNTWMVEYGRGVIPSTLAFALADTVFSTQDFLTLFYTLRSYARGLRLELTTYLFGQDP

Question: With `NCCc1ccc(O)cc1` [Tyramine] as the compound, how does the pKd (sigma-1 receptor [1]; (+)-[3H]-pentazocine 10 nM, read-out: Sigma-1R KD) read?
Answer: < 1.52

Question: With `CNCCc1c[nH]c2ccccc12` [N-methyltryptamine] as the compound, how does the “protection of sigma-1 receptor [125I]-IACoc photolabeling” value (sigma-1 receptor [2]) read?
Answer: protected minimally

Question: For `CCCCCCCCN(CCCCCCCC)C(=O)CCc1ccc(F)cc1` [Compound 4, N,N-Dioctyl-3-(4-fluorophenyl)propionamide], which melting point is on record?
Answer: 190 to 193 °C

Question: Which results are given for `CCCCCCCNCCCc1ccccc1` [Compound 1c, N-(3-Phenylpropyl)heptane-1-amine]?
Answer: pKi ([3]; [3H]-(+)-pentazocine): 7.74; pKi (σ-1 Sites): 7.82; pKi (σ-2 Sites): 7.48; pEC50 (Kv 1.4 K+ channel; HEK-293 co-expressing sigma-1 receptor, read-out: EC50 for inhibition of the Kv 1.4 K+ channel): 5.00

Question: With `CCCN(CCCc1ccc(F)cc1)CCc1ccc(N=[N+]=[N-])c(I)c1` [Compound 19] as the compound, how does the pIC50 (Du145) read?
Answer: 4.88

Question: What about the pKd (sigma-1 receptor [4]) of the same compound?
Answer: 5.14

Question: What about the “Ratio (σ2/σ1)” value (sigma-1 receptor [4]) of the same compound?
Answer: 0.178^c

Question: What about the pIC50 (SF268) of the same compound?
Answer: 4.41

Question: What about the pIC50 (NCI-H460) of the same compound?
Answer: 4.39

Question: What about the pIC50 (MCP10A) of the same compound?
Answer: 4.06

Question: And the pIC50 (HCT-45)?
Answer: 4.27

Question: What about the pIC50 (A549) of the same compound?
Answer: < 4.00

Question: What about the “cytotoxicity / tumor cell growth inhibition” value (tumor cell lines) of the same compound?
Answer: non-specifically cytotoxic in almost all the cell lines tested

Question: And the pIC50 (HT-29)?
Answer: 4.44

Question: What about the pIC50 (SKOV-3) of the same compound?
Answer: < 4.00

Question: What about the pIC50 (MB-MDA-231) of the same compound?
Answer: 4.67

Question: And the pIC50 (MCF7)?
Answer: 4.78

Question: And the pIC50 (HI299)?
Answer: 4.04

Question: And the pKd (sigma-2 receptor [5])?
Answer: 5.89

Question: With `CC1CN(CCCc2ccc(N=[N+]=[N-])c([125I])c2)CC(C)O1` (stereo not shown) [[^125I]IAF, 1-N-(2′,6′-dimethyl-morpholino)-3-(4-azido-3-[^125I]iodo-phenyl)propane] as the compound, how does the pKd (sigma-1 receptor [6]) read?
Answer: 6.71

Question: What about the pKd (sigma-2 receptor [7]) of the same compound?
Answer: 5.56

Question: Which “sigma-2/sigma-1 Kd ratio” value (sigma-1 receptor [1]) does the source give for `CNCCc1ccccc1` [N-methylPEA] here?
Answer: 0.366

Question: Which results are given for `CCCCCCCN` [Heptylamine]?
Answer: pKi ([3]; [3H]-(+)-pentazocine 10 nM): 4.67 and 4.68; average inhibition of Kv 1.4 K+ channel (Kv 1.4 K+ channel; concentrations up to 300 μM, HEK-293): 15%

Question: Which “sigma-2/sigma-1 Kd ratio” value (sigma-1 receptor [1]) does the source give for `CN(C)CCc1ccccc1` [N,N′-dimethylPEA, N,N-dimethyl-2-phenylethylamine] here?
Answer: 1.642

Question: With `NCCc1c[nH]c2ccccc12` [Tryptamine] as the compound, how does the pKd (sigma-2 receptor [8]) read?
Answer: 5.31

Question: And the “protection of [125I]IAF sigma-2 receptor photolabeling” value (sigma-2 receptor [9]; 10 μM)?
Answer: 47%

Question: What about the “protection of [125I]IAF sigma-2 receptor photolabeling” value (sigma-2 receptor [9]; 50 μM) of the same compound?
Answer: 78%

Question: What about the “protection of [125I]IAF sigma-2 receptor photolabeling” value (sigma-2 receptor [9]; 100 μM) of the same compound?
Answer: 79%

Question: What about the pKd (sigma-1 receptor [1]) of the same compound?
Answer: 3.36

Question: And the “protection of sigma-1 receptor [125I]-IACoc photolabeling” value (sigma-1 receptor [2])?
Answer: protected minimally
